Source: ChEMBL document CHEMBL1201862, “PubChem BioAssay data set” (2004)
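Method: 48-hour compound exposure of cells in 96-well plates, five concentrations, linear interpolation of endpoints. GI50: concentration for 50% inhibition of growth.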 The source made the active and inactive calls. No stated cut-off is given here; in the data, active = GI50 up to about 1.1 µM and inactive = higher.

What was measured:
Experiment in all cases: NCI anticancer screen, dose series, 48 h
SK-MEL-2 = system: SK-MEL-2
IGROV-1 = system: IGROV-1
EKVX = system: EKVX
HCT-116 = system: HCT-116
HCC 2998 = system: HCC 2998
ACHN = system: ACHN
HOP-92 = system: HOP-92
MOLT-4 = system: MOLT-4
NCI-H460 = system: NCI-H460
OVCAR-4 = system: OVCAR-4
TK-10 = system: TK-10
RXF 393 = system: RXF 393
Malme-3M = system: Malme-3M
NCI-H23 = system: NCI-H23
UACC-62 = system: UACC-62
HCT-15 = system: HCT-15
SK-MEL-28 = system: SK-MEL-28
SF-295 = system: SF-295
SF-539 = system: SF-539
RPMI-8226 = system: RPMI-8226

| SMILES | GI50 (SK-MEL-2) | GI50 (IGROV-1) | GI50 (EKVX) | GI50 (HCT-116) | GI50 (HCC 2998) | GI50 (ACHN) | GI50 (HOP-92) | GI50 (MOLT-4) | GI50 (NCI-H460) | GI50 (OVCAR-4) | GI50 (TK-10) | GI50 (RXF 393) | GI50 (Malme-3M) | GI50 (NCI-H23) | GI50 (UACC-62) | GI50 (HCT-15) [µM] | GI50 (SK-MEL-28) | GI50 (SF-295) | GI50 (SF-539) | GI50 (RPMI-8226) |
| --- | --- | --- | --- | --- | --- | --- | --- | --- | --- | --- | --- | --- | --- | --- | --- | --- | --- | --- | --- | --- |
| c1ccc2c(CSCc3cccc4ccccc34)cccc2c1 | > 100 µM (inactive) | 38.5 µM (inactive) | 46.8 µM (inactive) | 57.5 µM (inactive) | 50.8 µM (inactive) | > 100 µM (inactive) | > 100 µM (inactive) | 34.5 µM (inactive) | 43.4 µM (inactive) | > 100 µM (inactive) | > 100 µM (inactive) | > 100 µM (inactive) | 58.9 µM (inactive) | > 100 µM (inactive) | > 100 µM (inactive) | 1.91 | > 100 µM (inactive) | > 100 µM (inactive) | – | – |
| COc1ccc(/C(C=O)=C(\Cl)c2ccc(OC)c(OC)c2)cc1 | > 100 µM (inactive) | > 100 µM (inactive) | > 100 µM (inactive) | > 100 µM (inactive) | > 100 µM (inactive) | > 100 µM (inactive) | – | 87.3 µM (inactive) | > 100 µM (inactive) | > 100 µM (inactive) | > 100 µM (inactive) | > 100 µM (inactive) | > 100 µM (inactive) | > 100 µM (inactive) | > 100 µM (inactive) | > 100 | – | > 100 µM (inactive) | 57.3 µM (inactive) | > 100 µM (inactive) |
| CCN(CC)Cc1sc2nc3ccccc3n2c1-c1ccc(OC)cc1 | 43.4 µM (inactive) | 25.5 µM (inactive) | 27.6 µM (inactive) | 26.6 µM (inactive) | 45.6 µM (inactive) | 45.1 µM (inactive) | 27.8 µM (inactive) | 19.6 µM (inactive) | – | 53.2 µM (inactive) | 79.6 µM (inactive) | 26.2 µM (inactive) | 17.2 µM (inactive) | 26.9 µM (inactive) | 34.8 µM (inactive) | 12.6 | 22.7 µM (inactive) | 24.5 µM (inactive) | – | 10.5 µM (inactive) |
| CCCCCCCCCCCCCCCCCCC1=C(O)C(=O)C=C(OC)C1=O | 26.5 µM (inactive) | 38.8 µM (inactive) | 41.7 µM (inactive) | 43.7 µM (inactive) | 38.3 µM (inactive) | 28.7 µM (inactive) | 80.4 µM (inactive) | 21.1 µM (inactive) | 88.7 µM (inactive) | 46.7 µM (inactive) | 40.4 µM (inactive) | 43.6 µM (inactive) | 64.9 µM (inactive) | 26 µM (inactive) | 27.8 µM (inactive) | 29.5 | 36.4 µM (inactive) | 36.5 µM (inactive) | 45.1 µM (inactive) | – |
| CC1=CCC2(C#N)CCC1C2O (centres undefined) | > 100 µM (inactive) | > 100 µM (inactive) | > 100 µM (inactive) | > 100 µM (inactive) | > 100 µM (inactive) | > 100 µM (inactive) | – | > 100 µM (inactive) | > 100 µM (inactive) | > 100 µM (inactive) | > 100 µM (inactive) | > 100 µM (inactive) | > 100 µM (inactive) | – | > 100 µM (inactive) | > 100 | > 100 µM (inactive) | > 100 µM (inactive) | > 100 µM (inactive) | > 100 µM (inactive) |
| N#CC(Nc1cccc(C(F)(F)F)c1)c1ccccc1C(F)(F)F (centres undefined) | 7.21 µM (inactive) | 22.7 µM (inactive) | 15.4 µM (inactive) | 7.66 µM (inactive) | 7.78 µM (inactive) | 14.5 µM (inactive) | – | 14.6 µM (inactive) | 15.5 µM (inactive) | 5.58 µM (inactive) | 14.7 µM (inactive) | 12.2 µM (inactive) | 7.33 µM (inactive) | 13.9 µM (inactive) | 16.2 µM (inactive) | 7 | 17.9 µM (inactive) | 10.5 µM (inactive) | 18.4 µM (inactive) | – |
| C=C(CC[C@@H](C)[C@H]1CC[C@@]2(C)C3=C(CC[C@]12C)[C@@]1(C)CC[C@H](O)[C@@H](C)C1CC3)C(C)C (some centres undefined) | 1.56 µM (inactive) | 2.35 µM (inactive) | 1.23 µM (inactive) | 1.31 µM (inactive) | 1.53 µM (inactive) | 1.38 µM (inactive) | 1.18 µM (inactive) | 0.953 µM (active) | 0.679 µM (active) | 1.6 µM (inactive) | 1.35 µM (inactive) | 1.37 µM (inactive) | 1.29 µM (inactive) | 1.28 µM (inactive) | 1.43 µM (inactive) | 1.2 | 1.28 µM (inactive) | 1.08 µM (active) | 1.47 µM (inactive) | – |
| NC(=O)C(=O)c1ncn(Cc2ccccc2)c1N | > 100 µM (inactive) | > 100 µM (inactive) | > 100 µM (inactive) | > 100 µM (inactive) | > 100 µM (inactive) | > 100 µM (inactive) | – | – | > 100 µM (inactive) | > 100 µM (inactive) | > 100 µM (inactive) | > 100 µM (inactive) | > 100 µM (inactive) | > 100 µM (inactive) | > 100 µM (inactive) | > 100 | > 100 µM (inactive) | > 100 µM (inactive) | > 100 µM (inactive) | > 100 µM (inactive) |
| Cc1ccc(SC(CCC(Sc2ccc(C)cc2)Sc2ccc(C)cc2)Sc2ccc(C)cc2)cc1 | > 100 µM (inactive) | > 100 µM (inactive) | > 100 µM (inactive) | > 100 µM (inactive) | – | > 100 µM (inactive) | 71.1 µM (inactive) | > 100 µM (inactive) | > 100 µM (inactive) | > 100 µM (inactive) | > 100 µM (inactive) | > 100 µM (inactive) | – | > 100 µM (inactive) | > 100 µM (inactive) | > 100 | > 100 µM (inactive) | > 100 µM (inactive) | > 100 µM (inactive) | > 100 µM (inactive) |
| CC(C)[C@@H](C)CC[C@@H](C)C1CC=C2[C@@H]3CCC4C[C@@H](O[Si](C)(C)C(C)(C)C)CC[C@]4(C)C3CC[C@@]21C (some centres undefined) | > 100 µM (inactive) | > 100 µM (inactive) | > 100 µM (inactive) | > 100 µM (inactive) | > 100 µM (inactive) | > 100 µM (inactive) | – | > 100 µM (inactive) | > 100 µM (inactive) | > 100 µM (inactive) | > 100 µM (inactive) | > 100 µM (inactive) | > 100 µM (inactive) | – | > 100 µM (inactive) | > 100 | > 100 µM (inactive) | – | > 100 µM (inactive) | > 100 µM (inactive) |
| CC1CCCN1CCCOC(=O)c1ccc(OC2C=CCCC2)cc1 (centres undefined) | > 100 µM (inactive) | 21.4 µM (inactive) | 51.4 µM (inactive) | 17.2 µM (inactive) | 28.6 µM (inactive) | 33.5 µM (inactive) | – | 25.1 µM (inactive) | 17.1 µM (inactive) | 50 µM (inactive) | 36.9 µM (inactive) | 26.7 µM (inactive) | 18.9 µM (inactive) | 25.4 µM (inactive) | > 100 µM (inactive) | 23.3 | 54.7 µM (inactive) | 16.5 µM (inactive) | 25.6 µM (inactive) | 31.8 µM (inactive) |
| COCCOCCOCCOc1ccc(C(C#N)N(CCc2ccccc2)C(=O)c2cc(C(=O)N(CCc3ccccc3)C(C#N)c3ccc(OCCOCCOCCOC)cc3)cc(C(=O)N(CCc3ccccc3)C(C#N)c3ccc(OCCOCCOCCOC)cc3)c2)cc1 (centres undefined) | > 100 µM (inactive) | > 100 µM (inactive) | > 100 µM (inactive) | > 100 µM (inactive) | > 100 µM (inactive) | > 100 µM (inactive) | 85.7 µM (inactive) | > 100 µM (inactive) | > 100 µM (inactive) | > 100 µM (inactive) | > 100 µM (inactive) | > 100 µM (inactive) | > 100 µM (inactive) | > 100 µM (inactive) | > 100 µM (inactive) | > 100 | > 100 µM (inactive) | > 100 µM (inactive) | > 100 µM (inactive) | – |
| O=S(O)c1cc(Cl)c(O)c(Cl)c1 | > 100 µM (inactive) | – | > 100 µM (inactive) | > 100 µM (inactive) | > 100 µM (inactive) | > 100 µM (inactive) | – | > 100 µM (inactive) | > 100 µM (inactive) | > 100 µM (inactive) | > 100 µM (inactive) | > 100 µM (inactive) | > 100 µM (inactive) | > 100 µM (inactive) | > 100 µM (inactive) | – | > 100 µM (inactive) | – | > 100 µM (inactive) | – |
| C#CCCCC(=C)C[C@H](OCc1ccccc1)[C@H]1OC(=O)[C@@H]1C | > 100 µM (inactive) | – | > 100 µM (inactive) | – | > 100 µM (inactive) | 72.6 µM (inactive) | 37.6 µM (inactive) | – | > 100 µM (inactive) | > 100 µM (inactive) | > 100 µM (inactive) | > 100 µM (inactive) | – | 36 µM (inactive) | > 100 µM (inactive) | 79.4 | > 100 µM (inactive) | 89.7 µM (inactive) | 20.5 µM (inactive) | 11.5 µM (inactive) |
| CC(C)c1cccc2sc(NC(=O)C(=O)C(C#N)c3cccc4ccccc34)nc12 (centres undefined) | 45.2 µM (inactive) | 77.6 µM (inactive) | 10.9 µM (inactive) | 76.9 µM (inactive) | 65.8 µM (inactive) | 69.8 µM (inactive) | 30.4 µM (inactive) | 23.1 µM (inactive) | > 100 µM (inactive) | 29.8 µM (inactive) | > 100 µM (inactive) | 25.2 µM (inactive) | 73.3 µM (inactive) | 61.5 µM (inactive) | 57.4 µM (inactive) | 75.5 | > 100 µM (inactive) | 69.7 µM (inactive) | 20.7 µM (inactive) | – |
